The text below walks through data of patent publication US20130039951A1, “Process Of Preparing A Stabilized And Solubilized Formulation Of Sirolimus Derivatives” (DONG-A PHARM. CO., LTD., priority 2011, published 2013).

Data set [1] in a line: Elution test of tablets in distilled water, paddle method, HPLC. The format is physicochemical. Particulars: 900 mL distilled water, 37.5° C., 10 mg everolimus, after 1 hour. On the procedure:
The granules of the examples were mixed with pharmaceutical excipients as set forth in Table 1 and then tableted to give a tablet. A direct compressing method was used to prepare a tablet comprising 10 mg of a sirolimus derivative with a hardness of 13 to 15 Kp. However, the formulation prepared from Comparative Example 1 had difficulties in being mixed with the pharmaceutical excipients of Table 1 and also met with an obstacle in a tableting process so that it was subjected to an additional milling process and controlled to have a granularity of 200 to 300 μm before being mixed with the excipients and tableted.
The tablets as obtained were evaluated for their elution property. 900 mL of an elution liquid (distilled water) was put into an elution tester and the granules as obtained in Examples 1 to 6 were taken in an amount corresponding to a dosage of 10 mg of everolimus and subjected to an elution test at 37.5° C. with 50 cycles per a minute by using a paddle method for 2 hours. For each […] taken in accordance with a predetermined schedule, the concentration of everolimus in the elution liquid was quantified by using a high performance liquid chromatography. […]

A short description of data set [2]: Stability: storage in glass vial at 80° C. for 60 hours, drug content by HPLC. The format is physicochemical. On the procedure:
For Examples 1 to 6 and Comparative Examples 2 and 3, their stability was evaluated and the results were compared. Each of the samples was placed in a glass vial and stored at 80° C. for 60 hours, and then the content of the drug was quantified by using a high performance liquid chromatography.

Each structure is given as a SMILES string.

In the case of `CO[C@H]1C[C@@H]2CC[C@@H](C)[C@@](O)(O2)C(=O)C(=O)N2CCCC[C@H]2C(=O)O[C@H]([C@H](C)C[C@@H]2CC[C@@H](OCCO)[C@H](OC)C2)CC(=O)[C@H](C)/C=C(\C)[C@@H](O)[C@@H](OC)C(=O)[C@H](C)C[C@H](C)/C=C/C=C/C=C/1C` [Comparative Example 2, 40-O hydroxyethyl rapamycin], in data set [1], the “elution rate of everolimus” value is “about 37%”. For the same compound, in data set [2] (80° C., 60 hours), the “content after being left for 60 hours” value turned out to be 23.5%. For the same compound, the “Content, initial” value in data set [2] (before storage) is listed as 100.4 wt %. Further, in data set [2] (stored at 80° C. for 60 hours in glass vial), the “Content, After 60 hours” value was found to be 23.5 wt %.
